From BindingDB's records for doi:10.7270/Q2G73C4V (Nmmlsc, 2010) come the findings set out here.

The target in this assay is T1, Regulator of G-protein signaling 8 (Homo sapiens, UniProt P57771).
T1 sequence (P57771 whole entry): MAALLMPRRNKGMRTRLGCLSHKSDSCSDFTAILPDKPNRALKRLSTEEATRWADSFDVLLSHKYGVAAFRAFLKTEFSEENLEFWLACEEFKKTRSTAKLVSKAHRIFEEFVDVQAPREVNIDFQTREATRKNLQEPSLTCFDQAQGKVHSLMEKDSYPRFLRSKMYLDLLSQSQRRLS
Briefly: small molecules altering RGS8 binding of Galphao – biochemical, multiplex bead flow cytometry, SAR compounds, SAR follow-up (AID 2307).

With `NS(=O)(=O)c1ccc(N=NCc2ccc(O)c(O)c2O)c([N+](=O)[O-])c1` [4-[[(E)-(2,3-dihydroxy-4-oxo-1-cyclohexa-2,5-dienylidene)methyl]hydrazo]-3-nitrobenzenesulfonamide], the Ki came out at 20 nM.

The compound `O=C(COc1ccccc1C(=O)NN=Cc1ccc(O)c(O)c1)NN=Cc1ccc(O)c(O)c1` [N''-[(Z)-(3-hydroxy-4-oxo-1-cyclohexa-2,5-dienylidene)methyl]-2-[2-[[(Z)-(3-hydroxy-4-oxo-1-cyclohexa-2,5-dienylidene)methyl]hydrazo]-2-oxoethoxy]benzohydrazide] came in with a Ki of 100 nM.
